# Assay results taken from patent US20090304803A1, “Compositions and methods relating to target-specific photodynamic therapy” (The General Hospital Corporation, priority 2005, published 2009).
# How the values were obtained:
# HER2 = settings: cited from earlier work
# ErbB3 receptor = biological target: T1, ErbB3 receptor (Homo sapiens, UniProt P21860); assay: ErbB3-specific aptamer localization in target and non-target cells, confocal microscopy; format: cell-based; settings: 2 uM, 15 minutes at 4° C. then 20 minutes at 37° C.
# T1 construct: endogenous in cells; host or cells: OVCAR3 (target); PA-1 (non-expressing control)
# Protocol: Both ErbB3-expressing cells (OVCAR3) and non-expressing cells (PA-1) were incubated with the ErbB3-specific aptamer and the cells were imaged using a confocal microscope. OVCAR3 (target) and PA-1 (non-target) cells were incubated with 2 uM ErbB3 specific aptamer (tagged on the 5′ end with Fluoroscein) for 15 minutes at 4° C. and then for 20 minutes at 37° C. The cells were then imaged using a confocal laser scanning microscope with 488 nm excitation. The fluorescence was collected using a 515 nm long pass filter.
# MCF7 cells = settings: cited from earlier work
# [1] = water; cited from earlier work
# T1 sequence (P21860 20-1342): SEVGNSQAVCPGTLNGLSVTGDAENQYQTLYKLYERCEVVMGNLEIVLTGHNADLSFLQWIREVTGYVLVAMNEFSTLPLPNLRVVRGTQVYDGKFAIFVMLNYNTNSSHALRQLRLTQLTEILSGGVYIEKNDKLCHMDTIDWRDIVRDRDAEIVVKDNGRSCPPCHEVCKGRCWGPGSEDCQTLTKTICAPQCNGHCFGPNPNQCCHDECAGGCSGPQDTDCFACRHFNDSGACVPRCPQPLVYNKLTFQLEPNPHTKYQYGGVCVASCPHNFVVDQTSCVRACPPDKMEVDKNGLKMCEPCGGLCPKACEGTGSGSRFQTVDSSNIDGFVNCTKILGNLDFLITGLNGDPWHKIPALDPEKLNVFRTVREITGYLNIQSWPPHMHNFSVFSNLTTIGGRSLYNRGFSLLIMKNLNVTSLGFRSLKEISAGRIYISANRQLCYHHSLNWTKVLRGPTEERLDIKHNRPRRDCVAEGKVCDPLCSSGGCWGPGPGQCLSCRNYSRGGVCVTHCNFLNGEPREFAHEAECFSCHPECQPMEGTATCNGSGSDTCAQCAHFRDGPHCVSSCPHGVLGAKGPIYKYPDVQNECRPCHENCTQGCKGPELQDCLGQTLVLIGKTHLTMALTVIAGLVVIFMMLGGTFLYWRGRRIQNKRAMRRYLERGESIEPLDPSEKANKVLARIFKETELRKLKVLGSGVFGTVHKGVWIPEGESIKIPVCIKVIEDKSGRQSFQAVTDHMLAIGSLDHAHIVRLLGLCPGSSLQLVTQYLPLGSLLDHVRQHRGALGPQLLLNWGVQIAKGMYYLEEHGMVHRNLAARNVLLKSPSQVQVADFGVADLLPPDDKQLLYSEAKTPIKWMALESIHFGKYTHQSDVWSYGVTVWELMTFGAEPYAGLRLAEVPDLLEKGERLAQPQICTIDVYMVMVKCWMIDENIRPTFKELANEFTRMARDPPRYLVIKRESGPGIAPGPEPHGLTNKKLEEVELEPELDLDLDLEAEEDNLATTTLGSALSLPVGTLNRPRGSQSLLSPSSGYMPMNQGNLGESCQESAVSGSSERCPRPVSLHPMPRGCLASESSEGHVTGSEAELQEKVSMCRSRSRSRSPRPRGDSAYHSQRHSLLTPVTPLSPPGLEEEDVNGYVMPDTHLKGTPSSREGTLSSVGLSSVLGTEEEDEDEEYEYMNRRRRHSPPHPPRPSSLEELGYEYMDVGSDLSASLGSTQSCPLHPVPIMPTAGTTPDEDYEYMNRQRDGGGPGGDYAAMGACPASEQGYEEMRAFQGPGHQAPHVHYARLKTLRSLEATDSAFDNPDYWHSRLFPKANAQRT
Substance,hrg-dependent tyrosine phosphorylation of HER2 (HER2),"aptamer localization, OVCAR3 (target) versus PA-1 (non-target) (ErbB3 receptor)",hrg-induced growth response of MCF7 cells (MCF7 cells),solubility [1]
"ErbB3-specific aptamer: aptamer that recognizes the ErbB3 receptor, sequence from Chen et al., PNAS 2003; labeled at 5′ end with Fluoroscein (DNA CAGCGAAAGUUGCGUAUGGGUCACAUCGCAGGCACAUGUCAUCUGGGCG; 5' fluorescein label, chemistry of the aptamer otherwise not given here)",inhibited,localized specifically to the OVCAR3 cell line,inhibited,
chlorin e6 monoethylendiamine monamide [CMA],,,,soluble in water
